# Measurements from US20240050428A1 (Cullgen (Shanghai), Inc., priority 2020, published 2024).
# Like-named read-outs stand apart in the source and are kept apart here.
# How the values were obtained:
# MV4;11 cells = assay: Cell viability assay (CellTiter-Glo) in MV4;11 cells, alone or with gilteritinib; format: cell-based; conditions: MV4;11 cells, three days, CellTiter-Glo, read-out: MV4
# MOLM-13 cells = assay: Cell viability assay (CellTiter-Glo) in MOLM-13 cells, alone or with gilteritinib; format: cell-based; conditions: Homo sapiens, MOLM-13, 72 h, MOLM-13 cells, three days, CellTiter-Glo
# [1] = Homo sapiens, MV4-11, 72 h, compound alone (without gilteritinib), 11 IC50
# [2] = Homo sapiens, MV4-11, 72 h, with gilteritinib 10 nM, 11 IC50 gilteritinib
# [3] = compound alone (without gilteritinib), read-out: MOLM-13 IC50
# [4] = with gilteritinib 20 nM, read-out: MOLM-13 IC50 gilteritinib
smiles,measurement,setting,value
"O=C1CCC(N2C(=O)c3ccc(NCCC[C@H]4C[C@H](n5cc(-c6cccc(N7CCOCC7)c6)cn5)C4)cc3C2=O)C(=O)N1 (stereo partly drawn) [GS-241, 2-(2,6-Dioxopiperidin-3-yl)-5-((3-(trans-3-(4-(3-morpholinophenyl)-1H-pyrazol-1-yl)cyclobutyl)propyl)amino)isoindoline-1,3-dione]",IC50,MV4;11 cells; [1],100 to 1000 nM
same,IC50,MV4;11 cells; [2],100 to 1000 nM
same,IC50,MOLM-13 cells; [3],> 1000 nM
same,IC50,MOLM-13 cells; [4],100 to 1000 nM
"O=C1CCC(N2C(=O)c3ccc(NCCC[C@H]4C[C@H](n5cc(-c6ncccn6)cn5)C4)cc3C2=O)C(=O)N1 (stereo partly drawn) [GS-242, 2-(2,6-Dioxopiperidin-3-yl)-5-((3-(trans-3-(4-(pyrimidin-2-yl)-1H-pyrazol-1-yl)cyclobutyl)propyl)amino)isoindoline-1,3-dione]",IC50,MV4;11 cells; [1],> 1000 nM
same,IC50,MV4;11 cells; [2],100 to 1000 nM
same,IC50,MOLM-13 cells; [3],> 1000 nM
same,IC50,MOLM-13 cells; [4],100 to 1000 nM
"O=C1CCC(N2C(=O)c3ccc(NCCC[C@H]4C[C@H](n5cc(-c6cnc7ccccc7n6)c(C(F)F)n5)C4)cc3C2=O)C(=O)N1 (stereo partly drawn) [GS-243, 5-((3-(trans-3-(3-(Difluoromethyl)-4-(quinoxalin-2-yl)-1H-pyrazol-1-yl)cyclobutyl)propyl)amino)-2-(2,6-dioxopiperidin-3-yl)isoindoline-1,3-dione]",IC50,MV4;11 cells; [1],10 to 100 nM
same,IC50,MV4;11 cells; [2],< 10 nM
same,IC50,MOLM-13 cells; [3],10 to 100 nM
same,IC50,MOLM-13 cells; [4],< 10 nM
"Cc1nn([C@H]2C[C@H](CCCNc3ccc4c(c3)C(=O)N(C3CCC(=O)NC3=O)C4=O)C2)cc1-c1cccc(N2CCOCC2)n1 (stereo partly drawn) [GS-244, 2-(2,6-Dioxopiperidin-3-yl)-5-((3-(trans-3-(3-methyl-4-(6-morpholinopyridin-2-yl)-1H-pyrazol-1-yl)cyclobutyl)propyl)amino)isoindoline-1,3-dione]",IC50,MV4;11 cells; [1],100 to 1000 nM
same,IC50,MV4;11 cells; [2],10 to 100 nM
same,IC50,MOLM-13 cells; [3],> 1000 nM
same,IC50,MOLM-13 cells; [4],10 to 100 nM
"CN1CCN(c2cccc(-c3cnn([C@H]4C[C@H](CCCNc5ccc6c(c5)C(=O)N(C5CCC(=O)NC5=O)C6=O)C4)c3)n2)CC1 (stereo partly drawn) [GS-245, 2-(2,6-Dioxopiperidin-3-yl)-5-((3-(trans-3-(4-(6-(4-methylpiperazin-1-yl)pyridin-2-yl)-1H-pyrazol-1-yl)cyclobutyl)propyl)amino)isoindoline-1,3-dione]",IC50,MV4;11 cells; [2],10 to 100 nM
same,IC50,"MV4;11 cells; compound alone (without gilteritinib), 11 IC50",> 1000 nM
same,IC50,MOLM-13 cells; [3],> 1000 nM
same,IC50,MOLM-13 cells; [4],100 to 1000 nM
"O=C1CCC(N2C(=O)c3ccc(NCCC[C@H]4C[C@H](n5cc(-c6cccc(N7CCOCC7)n6)c(C6CC6)n5)C4)cc3C2=O)C(=O)N1 (stereo partly drawn) [GS-246, 5-((3-(trans-3-(3-Cyclopropyl-4-(6-morpholinopyridin-2-yl)-1H-pyrazol-1-yl)cyclobutyl)propyl)amino)-2-(2,6-dioxopiperidin-3-yl)isoindoline-1,3-dione]",IC50,MV4;11 cells; [1],100 to 1000 nM
same,IC50,MV4;11 cells; [2],10 to 100 nM
same,IC50,MOLM-13 cells; [3],> 1000 nM
same,IC50,MOLM-13 cells; [4],100 to 1000 nM
"O=C1CCC(N2C(=O)c3ccc(NCCC[C@H]4C[C@H](n5cc(-c6cccc(N7CCNCC7)n6)cn5)C4)cc3C2=O)C(=O)N1 (stereo partly drawn) [GS-247, 2-(2,6-Dioxopiperidin-3-yl)-5-((3-(trans-3-(4-(6-(piperazin-1-yl)pyridin-2-yl)-1H-pyrazol-1-yl)cyclobutyl)propyl)amino)isoindoline-1,3-dione]",IC50,MV4;11 cells; [1],100 to 1000 nM
same,IC50,MV4;11 cells; [2],< 10 nM
same,IC50,MOLM-13 cells; [3],> 1000 nM
same,IC50,MOLM-13 cells; [4],10 to 100 nM
"CN(C)c1cccc(-c2cnn([C@H]3C[C@H](CCCNc4ccc5c(c4)C(=O)N(C4CCC(=O)NC4=O)C5=O)C3)c2)n1 (stereo partly drawn) [GS-248, 5-((3-(trans-3-(4-(6-(Dimethylamino)pyridin-2-yl)-1H-pyrazol-1-yl)cyclobutyl)propyl)amino)-2-(2,6-dioxopiperidin-3-yl)isoindoline-1,3-dione]",IC50,MV4;11 cells; [1],10 to 100 nM
same,IC50,MV4;11 cells; [2],10 to 100 nM
same,IC50,MOLM-13 cells; [3],> 1000 nM
same,IC50,MOLM-13 cells; [4],10 to 100 nM
"O=C1CCC(N2C(=O)c3ccc(NCCC[C@H]4C[C@H](n5cc(-c6cccc(=O)[nH]6)cn5)C4)cc3C2=O)C(=O)N1 (stereo partly drawn) [GS-249, 2-(2,6-Dioxopiperidin-3-yl)-5-((3-(trans-3-(4-(6-oxo-1,6-dihydropyridin-2-yl)-1H-pyrazol-1-yl)cyclobutyl)propyl)amino)isoindoline-1,3-dione]",IC50,MV4;11 cells; [1],100 to 1000 nM
same,IC50,MV4;11 cells; [2],> 1000 nM
same,IC50,MOLM-13 cells; [3],> 1000 nM
same,IC50,MOLM-13 cells; [4],100 to 1000 nM
"O=C1CCC(N2C(=O)c3ccc(NCCC[C@H]4C[C@H](n5cc(-c6cnc7c(C8CNC8)cccc7n6)cn5)C4)cc3C2=O)C(=O)N1 (stereo partly drawn) [GS-250, 5-((3-(trans-3-(4-(5-(Azetidin-3-yl)quinoxalin-2-yl)-1H-pyrazol-1-yl)cyclobutyl)propyl)amino)-2-(2,6-dioxopiperidin-3-yl)isoindoline-1,3-dione]",IC50,MV4;11 cells; [1],100 to 1000 nM
same,IC50,MV4;11 cells; [2],10 to 100 nM
same,IC50,MOLM-13 cells; [3],100 to 1000 nM
same,IC50,MOLM-13 cells; [4],10 to 100 nM
"CNc1cccc(-c2cnn([C@H]3C[C@H](CCCNc4ccc5c(c4)C(=O)N(C4CCC(=O)NC4=O)C5=O)C3)c2)n1 (stereo partly drawn) [GS-251, 2-(2,6-Dioxopiperidin-3-yl)-5-((3-(trans-3-(4-(6-(methylamino)pyridin-2-yl)-1H-pyrazol-1-yl)cyclobutyl)propyl)amino)isoindoline-1,3-dione]",IC50,MV4;11 cells; [1],100 to 1000 nM
same,IC50,MV4;11 cells; [2],10 to 100 nM
same,IC50,MOLM-13 cells; [3],100 to 1000 nM
same,IC50,MOLM-13 cells; [4],10 to 100 nM
"O=C1CCC(N2C(=O)c3ccc(NCCC[C@H]4C[C@H](n5cc(-c6cccc(N7CCC(O)CC7)n6)cn5)C4)cc3C2=O)C(=O)N1 (stereo partly drawn) [GS-252, 2-(2,6-Dioxopiperidin-3-yl)-5-((3-(trans-3-(4-(6-(4-hydroxypiperidin-1-yl)pyridin-2-yl)-1H-pyrazol-1-yl)cyclobutyl)propyl)amino)isoindoline-1,3-dione]",IC50,MV4;11 cells; [1],100 to 1000 nM
same,IC50,MV4;11 cells; [2],> 1000 nM
same,IC50,MOLM-13 cells; [3],> 1000 nM
same,IC50,MOLM-13 cells; [4],> 1000 nM
"Cc1ccnc(-c2cn([C@H]3C[C@H](CNc4ccc5c(c4)C(=O)N(C4CCC(=O)NC4=O)C5=O)C3)nc2C2CC2)c1 (stereo partly drawn) [GS-253, 5-(((trans-3-(3-Cyclopropyl-4-(4-methylpyridin-2-yl)-1H-pyrazol-1-yl)cyclobutyl)methyl)amino)-2-(2,6-dioxopiperidin-3-yl)isoindoline-1,3-dione]",IC50,MV4;11 cells; [1],< 10 nM
same,IC50,MV4;11 cells; [2],< 10 nM
same,IC50,MOLM-13 cells; [3],10 to 100 nM
same,IC50,MOLM-13 cells; [4],< 10 nM
"COc1ccnc(-c2cn([C@H]3C[C@H](CNc4ccc5c(c4)C(=O)N(C4CCC(=O)NC4=O)C5=O)C3)nc2C2CC2)c1 (stereo partly drawn) [GS-254, 5-(((trans-3-(3-Cyclopropyl-4-(4-methoxypyridin-2-yl)-1H-pyrazol-1-yl)cyclobutyl)methyl)amino)-2-(2,6-dioxopiperidin-3-yl)isoindoline-1,3-dione]",IC50,MV4;11 cells; [1],10 to 100 nM
same,IC50,MV4;11 cells; [2],< 10 nM
same,IC50,MOLM-13 cells; [3],10 to 100 nM
same,IC50,MOLM-13 cells; [4],< 10 nM
"O=C1CCC(N2C(=O)c3ccc(NC[C@H]4C[C@H](n5cc(-c6ccc(Cl)cn6)c(C6CC6)n5)C4)cc3C2=O)C(=O)N1 (stereo partly drawn) [GS-255, 5-(((trans-3-(4-(5-Chloropyridin-2-yl)-3-cyclopropyl-1H-pyrazol-1-yl)cyclobutyl)methyl)amino)-2-(2,6-dioxopiperidin-3-yl)isoindoline-1,3-dione]",IC50,MV4;11 cells; [1],10 to 100 nM
same,IC50,MV4;11 cells; [2],< 10 nM
same,IC50,MOLM-13 cells; [3],100 to 1000 nM
same,IC50,MOLM-13 cells; [4],< 10 nM
"Cc1ccc(-c2cn([C@H]3C[C@H](CNc4ccc5c(c4)C(=O)N(C4CCC(=O)NC4=O)C5=O)C3)nc2C2CC2)nc1 (stereo partly drawn) [GS-256, 5-(((trans-3-(3-Cyclopropyl-4-(5-methylpyridin-2-yl)-1H-pyrazol-1-yl)cyclobutyl)methyl)amino)-2-(2,6-dioxopiperidin-3-yl)isoindoline-1,3-dione]",IC50,MV4;11 cells; [1],10 to 100 nM
same,IC50,MV4;11 cells; [2],< 10 nM
same,IC50,MOLM-13 cells; [3],100 to 1000 nM
same,IC50,MOLM-13 cells; [4],< 10 nM
"O=C1CCC(N2C(=O)c3ccc(NC[C@H]4C[C@H](n5cc(-c6cccc(N7CCC7)n6)c(C6CC6)n5)C4)cc3C2=O)C(=O)N1 (stereo partly drawn) [GS-257, 5-(((trans-3-(4-(6-(Azetidin-1-yl)pyridin-2-yl)-3-cyclopropyl-1H-pyrazol-1-yl)cyclobutyl)methyl)amino)-2-(2,6-dioxopiperidin-3-yl)isoindoline-1,3-dione]",IC50,MV4;11 cells; [1],< 10 nM
same,IC50,MV4;11 cells; [2],< 10 nM
same,IC50,MOLM-13 cells; [3],10 to 100 nM
same,IC50,MOLM-13 cells; [4],< 10 nM
"O=C1CCC(N2C(=O)c3ccc(NC[C@H]4C[C@H](n5cc(-c6cccc(NC7CCC7)n6)c(C6CC6)n5)C4)cc3C2=O)C(=O)N1 (stereo partly drawn) [GS-258, 5-(((trans-3-(4-(6-(Cyclobutylamino)pyridin-2-yl)-3-cyclopropyl-1H-pyrazol-1-yl)cyclobutyl)methyl)amino)-2-(2,6-dioxopiperidin-3-yl)isoindoline-1,3-dione]",IC50,MV4;11 cells; [1],100 to 1000 nM
same,IC50,MV4;11 cells; [2],10 to 100 nM
same,IC50,MOLM-13 cells; [3],> 1000 nM
same,IC50,MOLM-13 cells; [4],10 to 100 nM
"CN(C)c1cccc(-c2cn([C@H]3C[C@H](CNc4ccc5c(c4)C(=O)N(C4CCC(=O)NC4=O)C5=O)C3)nc2C2CC2)n1 (stereo partly drawn) [GS-259, 5-(((trans-3-(3-Cyclopropyl-4-(6-(dimethylamino)pyridin-2-yl)-1H-pyrazol-1-yl)cyclobutyl)methyl)amino)-2-(2,6-dioxopiperidin-3-yl)isoindoline-1,3-dione]",IC50,MV4;11 cells; [1],< 10 nM
same,IC50,MV4;11 cells; [2],< 10 nM
same,IC50,MOLM-13 cells; [3],10 to 100 nM
same,IC50,MOLM-13 cells; [4],< 10 nM
"O=C1CCC(N2C(=O)c3ccc(NC[C@H]4C[C@H](n5cc(-c6cccc(NC7COC7)n6)c(C6CC6)n5)C4)cc3C2=O)C(=O)N1 (stereo partly drawn) [GS-260, 5-(((trans-3-(3-Cyclopropyl-4-(6-(oxetan-3-ylamino)pyridin-2-yl)-1H-pyrazol-1-yl)cyclobutyl)methyl)amino)-2-(2,6-dioxopiperidin-3-yl)isoindoline-1,3-dione]",IC50,MV4;11 cells; [1],> 1000 nM
same,IC50,MV4;11 cells; [2],> 1000 nM
same,IC50,MOLM-13 cells; [3],100 to 1000 nM
same,IC50,MOLM-13 cells; [4],> 1000 nM
"Cc1cccnc1-c1cn([C@H]2C[C@H](CNc3ccc4c(c3)C(=O)N(C3CCC(=O)NC3=O)C4=O)C2)nc1C1CC1 (stereo partly drawn) [GS-261, 5-(((trans-3-(3-Cyclopropyl-4-(3-methylpyridin-2-yl)-1H-pyrazol-1-yl)cyclobutyl)methyl)amino)-2-(2,6-dioxopiperidin-3-yl)isoindoline-1,3-dione]",IC50,MV4;11 cells; [1],< 10 nM
same,IC50,MV4;11 cells; [2],< 10 nM
same,IC50,MOLM-13 cells; [3],< 10 nM
same,IC50,MOLM-13 cells; [4],< 10 nM
